Test results reported in patent publication US4564619A, “Carbostyril derivative” (Otsuka Pharmaceutical Co., Ltd., priority 1982, dated 1986).

Legend:
[1] = tested on: ADP-induced aggregation in rabbit platelets; assay: Inhibition of ADP-induced platelet aggregation in rabbit platelet rich plasma; assay type: cell-based; details: Oryctolagus cuniculus, read-out: Inhibition rate of ADP-induced aggregation; for inhibition at 100 µM (stock): Concentration of the test compound solution 10^-4 mole; for inhibition at 10 µM (stock): Concentration of the test compound solution 10^-5 mole
Protocol: (§1) The platelet aggregation inhibitory effect was measured by using a Platelet Aggregation Tracer Model PAT-6M (manufactured by Nikoh Bio-Science Co., Ltd.) by a method according to Kimura, et al., [IGAKU-NO-AYUMI (Progress in Medicine), Vol. 114, No. 9, pp. 718-727, Aug. 30, 1980, and Nature, pp. 927-929, 1962].
(§2) The blood sample used for the test was a 1:9 (by volume) mixture of "3.8%-CITRATE"® (a registered trademark for 3.8%-sodium citrate, manufactured by Green Cross Corp.) and whole blood collected from rabbits. Said sample was subjected to 10-minute centrifugal separation at 1,000 r.p.m. (200xG) to obtain a platelet rich plasma (PRP). The PRP thus obtained was separated, and the remaining blood sample was further subjected to 15-minute centrifugal separation at 3,000 r.p.m. (2,000xG) to obtain a platelet poor plasma (PPP).
(§3) The number of platelets in the PRP was counted by the Brecher-Clonkite Method, and the PRP was diluted with the PPP to prepare a PRP sample with a platelet concentration of 600,000/microliter to prepare for an adenosine diphosphate (ADP)-induced aggregation test, and a collagen-induced aggregation test. 0.2 Milliliter of the PRP sample was added to 2 microliters of a solution of a test compound of predetermined concentration and this mixture was placed in a 37° C. thermostat for one minute. Then 20 microliters of an ADP or collagen solution was added to the mixture. In this test, the ADP solution was prepared by adjustment to a concentration of 7.5×10^-5 M by using Auren-Beronal buffer solution (pH 7.35). Further, the collagen solution was prepared by adjustment to a concentration of 200 micrograms/ml by using collagen reagent of "Holm"® (manufactured by Hormon-Chemie Munchen, GmbH.) which was diluted wih a physiological saline solution.
(§4) The transmittance of the resultant test mixture was determined and the change of transmittance was recorded by using the aggregometer at a stirrer speed of 1,100 r.p.m.
(§5) The platelet aggregation inhibitory effect of the test compound was measured in terms of inhibition rate (%) with respect to the aggregation rate of the controls. The aggregation rate was calculated from the following formula.
(§6) Aggregation rate=[(c-a)/(b-a)]×100
(§7) The percent inhibition is calculated from the following formula.
(§8) Inhibition rate (%)=[(A-B)/A]×100
(§9) The inhibitory effect of the test compounds on collagen-induced aggregation in rabbit platelets is shown in Table 1, similarly such effect on ADP-induced aggregation in rabbit platelets is shown in Table 2.

[2] = Change of blood pressure, intravenous administration, anesthetized dog; assay type: in vivo; design: unit not given here; details: femoral artery
Protocol: The change of blood flow in coronary artery and the change of blood pressure were measured by a method according to Yakura et al., [Japan Journal of Pharmacology, Vol. 57, pages 380-391 (1961)] and according to Taira, et al. [Clin. Exp. Pharmacol. Physiol., Vol. 6, pages 301-316, (1976)].
An adult bastard dog of either sex weighing 8-13 kg was anesthetized with sodium pentobarbital at the rate of 30 mg/kg by intraveneous administration, then the dog was fixed in supination and was theracotomized under a condition of forced breathing. After another intraveneous administration of sodium heparin at the rate of 500 U/kg, 100 U/kg per hour, the dog was subjected to the following experiments.
(2) Intraveneous administration
Morawitz's cannula was cannulated to the coronary sinus venosus through the auricula dextra cordis, and the blood in vein was circulated to the right carotid. The blood flow was measured by an electromagnetic blood flow meter equipped with a blood flow observation probe in the extracorporeal circulation path of the vein. The systolic force was measured by a systolometer (pick-up) placed at the left ventricle of heart, the blood pressure was measured from the femoral artery, and the heart rate was measured from the pulse. A compound to be tested was administered through the cannula being cannulated in femoral vein. The increased amount of the blood flow in coronary artery after the administration of the test compound is shown in Table 4, also the change of blood pressure is shown in Table 5.

[3] = tested on: collagen-induced aggregation in rabbit platelets; assay: Inhibition of collagen-induced platelet aggregation in rabbit platelet rich plasma; assay type: cell-based; details: Oryctolagus cuniculus, read-out: Inhibition rate of collagen-induced aggregation; for inhibition at 100 µM (stock): Concentration of the test compound solution 10^-4 mole; for inhibition at 10 µM (stock): Concentration of the test compound solution 10^-5 mole
Protocol: as §1, §2, §3, §4, §5, §6, §7, §8, §9

Structure (SMILES): COC(=O)C1=C(C)NC(C)=C(C(=O)OCCCCOc2ccc3[nH]c(=O)ccc3c2)C1c1ccccc1C(F)(F)F (stereo not drawn) [Compound 24, 6-{4-[2,6-Dimethyl-5-methoxycarbonyl-4-(2-trifluoromethylphenyl)-1,4-dihydropyridin-3-carboxy]butoxy}carbostyril]
- inhibition at 100 µM (stock) [1]: 100%
- inhibition at 10 µM (stock) [1]: 62%
- Change of blood pressure ([2]; 10 micrograms/kg): -6
- Change of blood pressure ([2]; 30 micrograms/kg): -18
- Change of blood pressure ([2]; 100 micrograms/kg): -30
- Change of blood pressure ([2]; 300 micrograms/kg): -44
- inhibition at 100 µM (stock) [3]: 100%
- inhibition at 10 µM (stock) [3]: 30%

Structure (SMILES): COC(=O)C1=C(C)NC(C)=C(C(=O)OCCCOc2ccc3[nH]c(=O)cc(C)c3c2)C1c1cccc([N+](=O)[O-])c1 (stereo not drawn) [Compound 38, 4-Methyl-6-{3-[2,6-dimethyl-5-methoxycarbonyl-4-(3-nitrophenyl)-1,4-dihydropyridin-3-carboxy]propoxy}carbostyril]
- inhibition at 100 µM (stock) [1]: 31%
- Change of blood pressure ([2]; 10 micrograms/kg): -2
- Change of blood pressure ([2]; 30 micrograms/kg): -10
- Change of blood pressure ([2]; 100 micrograms/kg): -35
- inhibition at 100 µM (stock) [3]: 45%

Structure (SMILES): COC(=O)C1=C(C)NC(C)=C(C(=O)OCCCOc2cc(=O)[nH]c3ccccc23)C1c1cccc([N+](=O)[O-])c1 (stereo not drawn) [Compound 37, 4-{3-[2,6-Dimethyl-5-methoxycarbonyl-4-(3-nitrophenyl)-1,4-dihydropyridin-3-carboxy]propoxy}carbostyril]
- inhibition at 100 µM (stock) [1]: 17%
- Change of blood pressure ([2]; 30 micrograms/kg): -1
- Change of blood pressure ([2]; 100 micrograms/kg): -5
- Change of blood pressure ([2]; 300 micrograms/kg): -18
- inhibition at 100 µM (stock) [3]: 15%

Structure (SMILES): COC(=O)C1=C(C)NC(C)=C(C(=O)OCCCCOc2ccc3c(c2)CCC(=O)N3)C1c1ccccc1C (stereo not drawn) [Compound 29, 6-{4-[2,6-Dimethyl-5-methoxycarbonyl-4-(2-methylphenyl-1,4-dihydropyridin-3-carboxy)]-butoxy}-3,4-dihydrocarbostyril]
- inhibition at 100 µM (stock) [1]: 59%
- Change of blood pressure ([2]; 3 micrograms/kg): -7
- Change of blood pressure ([2]; 10 micrograms/kg): -23
- Change of blood pressure ([2]; 30 micrograms/kg): -45
- Change of blood pressure ([2]; 100 micrograms/kg): -70
- Change of blood pressure ([2]; 300 micrograms/kg): -80
- inhibition at 100 µM (stock) [3]: 69%

Structure (SMILES): COC(=O)C1=C(C)NC(C)=C(C(=O)OCC(COc2ccc3[nH]c(=O)ccc3c2)OC(C)=O)C1c1cccc([N+](=O)[O-])c1 (stereo not drawn) [Compound 43, 6-{3-[2,6-Dimethyl-5-methoxycarbonyl-4-(3-nitrophenyl)-1,4-dihydropyridin-3-carboxy]-2-acetoxypropoxy}carbostyril]
- inhibition at 100 µM (stock) [1]: 100%
- inhibition at 10 µM (stock) [1]: 100%
- Change of blood pressure ([2]; 30 micrograms/kg): -4
- Change of blood pressure ([2]; 100 micrograms/kg): -16
- Change of blood pressure ([2]; 300 micrograms/kg): -23
- inhibition at 100 µM (stock) [3]: 100%
- inhibition at 10 µM (stock) [3]: 100%

Structure (SMILES): COC(=O)C1=C(C)NC(C)=C(C(=O)OCCCCOc2ccc3[nH]c(=O)ccc3c2)C1c1cccc([N+](=O)[O-])c1 (stereo not drawn) [Compound 15, 6-{4-[2,6-Dimethyl-5-methoxycarbonyl-4-(3-nitrophenyl)-1,4-dihydropyridin-3-carboxy]-butoxy}carbostyril]
- inhibition at 100 µM (stock) [1]: 100%
- inhibition at 10 µM (stock) [1]: 20%
- Change of blood pressure ([2]; 30 micrograms/kg): -3
- Change of blood pressure ([2]; 100 micrograms/kg): -9
- Change of blood pressure ([2]; 300 micrograms/kg): -27
- inhibition at 100 µM (stock) [3]: 100%
- inhibition at 10 µM (stock) [3]: 26%
